Source: PMC3380929 (PLoS Pathogens, 2012)
“Also recorded” adds a separate entry of the source. Positions of bridges follow the written chain, without caps; N, C: chain ends. Residues, ends and D or L forms follow the SMILES beside them.

Experiments:
PfAMA1 from strain 3D7 = PfAMA1 from strain 3D7 (Plasmodium falciparum, UniProt Q7KQK5); experiment: SPR binding to immobilized recombinant PfAMA1 3D7; set-up: species or system P. falciparum (strain 3D7); settings: ratio PfRON2sp1 vs PfRON2sp2, SPR
Excerpt: (§1) (ii) P. pastoris expression: Synthetic genes were optimized for PfAMA1 coding of residues 97–442, from strains 3D7 (Genbank accession number U33274), CAMP (accession number M34552) and HB3 (accession number U33277). Potential N-glycosylation sites were mutated and genes were cloned EcoRI-KpnI in the pPicZalpha A vector (Invitrogen), resulting in an 11-residues sequence extension followed by myc-epitope and hexa-His tags at the C-terminus), expressed in P. pastoris, and purified as described. Yield after purification was approximately 20 mg per L of culture. PfAMA1 FVO (residues 25–545, no tags, accession number AJ277646) was produced as described before. The DiCo3 protein was modified compared to the published protein [23]; it includes the PfAMA1 FVO prodomain (amino acids 25–96) and one additional mutation to minimize proteolytic cleavage Lys376–>Arg (B. Faber, unpublished results). The PfAMA1 3D7mut (Ile225–>Asn, residues 25–545, no tags) mutant was generated by site-directed mutagenesis (Genscript) and produced in P. pastoris in a similar fashion to the native protein [29].
(§2) A 39-residue peptide corresponding to residues 2021 to 2059 of PfRON2 (PfRON2sp1) was synthesized by Kinexus (Vancouver, Canada) and disulfide cyclized. […]

P. falciparum 3D7 or HB3 = experiment: Red blood cell invasion assay, cross-strain (3D7 and HB3); format: cell-based, P. falciparum (strains 3D7 and HB3); settings: for Cross-strain reactivity of invasion inhibition: 3D7 or HB3, peptides 0.2 to 20 µM, 16 hours post-invasion, N = 3; for Inhibition of erythrocyte invasion: P. falciparum merozoites, in words
Procedure: (§3) The P. falciparum cell cultures and the invasion assays were performed as described previously. Briefly, highly synchronized P. falciparum 3D7 and HB3 schizonts (1.5% hematocrit, 1.5% parasitemia) were incubated with R1 or PfRON2sp1 peptides. Blood smears were collected 16 hours post-invasion and used for ring-stage parasites counting. The results presented are representative of three independent experiments, each performed in triplicate.

[1] = system: PfAMA1 from 3D7, CAMP, FVO and HB3; experiment: SPR binding compared across PfAMA1 strains; set-up: species or system P. falciparum
Excerpt: as §1
A 39-residue peptide corresponding to residues 2021 to 2059 of PfRON2 (PfRON2sp1) was synthesized by Kinexus (Vancouver, Canada) and disulfide cyclized. Lyophilized PfRON2sp1 was solubilized in 100% DMSO and subsequently diluted in HBS (20 mM HEPES pH 7.5, 150 mM NaCl) for use in co-crystallization and functional studies. Peptides PfRON2sp2 (residues 2027 to 2054) and R1 were synthesized by PolyPeptide (Strasbourg, France) and solubilized in 3.5% DMSO for subsequent use.
SPR measurements were made with a Biacore 2000 instrument (Biacore AB). AMA1 proteins diluted in 10 mM sodium acetate pH 4.5 for 3D7, CAMP, HB3 and FVO strains, or pH 4.0 for 3D7mut and Dico3, were covalently immobilized by an amine-coupling procedure on CM5 sensor chips (GE Healthcare). The reference flow cell was prepared by the same procedure in absence of protein. […]

P. falciparum 3D7 = experiment: Red blood cell invasion assay, P. falciparum 3D7; format: cell-based, P. falciparum (strain 3D7); settings: peptides 0.2 to 20 µM, parasitemia of IRBC 16 hours post-invasion, N = 3
Procedure: as §3

PfAMA1 from strain CAMP = experiment: SPR binding to immobilized recombinant PfAMA1 CAMP; set-up: species or system P. falciparum (strain CAMP); settings: SPR Biacore 2000, AMA1 immobilized on CM5, 25°C, PBS and 0.005% Tween 20, steady-state model (Req extrapolated), mean ± SD, at least three independent experiments, read-out: Apparent equilibrium dissociation constant KD
Excerpt: as §1, §2

[2] = target: PfAMA1 3D7 (residues 97-442), P. pastoris expression (Plasmodium falciparum (strain 3D7)) (UniProt Q7KQK5); experiment: SPR; Biacore 2000; PfAMA1 (3D7, CAMP, HB3, FVO) amine-coupled on CM5 at pH 4.5; PfRON2sp peptides injected; 25°C, PBS with 0.005% Tween 20, 5 µL/min; apparent KD from a steady-state model, Req extrapolated
[3] = target: PfAMA1 CAMP (residues 97-442), P. pastoris expression (Plasmodium falciparum (strain CAMP)) (UniProt P50489); experiment: as above
[4] = target: PfAMA1 FVO (residues 25-545, no tags) (Plasmodium falciparum (strain FVO)); experiment: as above
[5] = target: PfAMA1 HB3 (residues 97-442), P. pastoris expression (Plasmodium falciparum (strain HB3)); experiment: as above
PfAMA1 3D7 = PfAMA1 3D7 (Plasmodium falciparum, UniProt Q7KQK5); experiment: Isothermal titration calorimetry of R1 with PfAMA1 3D7; format: binding, P. falciparum (strain 3D7); settings: ITC200, PfAMA1 3D7 (P. pastoris) 0.6 µM, R1 55 µM, PBS, 25°C, 1∶1 interaction model
Procedure: ITC measurements were made using a ITC200 calorimeter (MicroCal). PfAMA1 3D7 (P. pastoris) and peptide R1 were diluted in PBS to final concentrations of 0.6 µM and 55 µM, respectively. PfAMA1 3D7 (initial volume 200 µL) was titrated at 25°C by consecutive injections of the peptide R1 (2 µL aliquots at 3 min intervals). Raw data were normalized and corrected for the heat of dilution of R1 in PBS. Binding stoichiometry was determined by fitting the final data to a 1∶1 interaction model using the Origin7 software (OriginLab).

crystal structure = target: the molecule itself; experiment: crystal structure

Q: How did the “Affinity of PfAMA1 from 3D7 for PfRON2sp1 higher than for PfRON2sp2” value (PfAMA1 from strain 3D7) turn out when `CC[C@H](C)[C@H](NC(=O)[C@H](CC(=O)O)NC(=O)[C@H](CCCCN)NC(=O)[C@H](C)NC(=O)[C@H](CCC(N)=O)NC(=O)[C@H](CCC(N)=O)NC(=O)[C@@H](NC(=O)[C@@H](NC(=O)[C@@H](N)CC(=O)O)[C@@H](C)CC)[C@@H](C)O)C(=O)NCC(=O)N[C@@H](C)C(=O)NCC(=O)N1CCC[C@H]1C(=O)N[C@H](C(=O)N[C@@H](C)C(=O)N[C@@H](CO)C(=O)N[C@H]1CSSC[C@@H](C(=O)N[C@@H](CC(C)C)C(=O)N[C@@H](CC(N)=O)C(=O)N[C@@H](CO)C(=O)N[C@H](C(=O)N[C@H](C(=O)N[C@@H](CC(N)=O)C(=O)N[C@H](C(=O)N[C@@H](C)C(=O)N[C@@H](CC(C)C)C(=O)N[C@@H](CO)C(=O)O)[C@@H](C)O)C(C)C)C(C)C)NC(=O)[C@H]([C@@H](C)CC)NC(=O)[C@H](CCC(N)=O)NC(=O)[C@H](CCC(N)=O)NC(=O)[C@@H]2CCCN2C(=O)[C@@H]2CCCN2C(=O)[C@H](CO)NC(=O)[C@H](CCSC)NC(=O)[C@H](CCCNC(=N)N)NC(=O)[C@H]([C@@H](C)O)NC(=O)[C@H]([C@@H](C)O)NC(=O)[C@H](Cc2ccccc2)NC1=O)C(C)C` [PfRON2sp1] was run?
A: 25 fold

Q: What about the “Cross-strain reactivity of invasion inhibition” value (P. falciparum 3D7 or HB3) of the same molecule?
A: cross-strain inhibition of invasion; also recorded: cross-strain reactivity; also recorded: not strain specific

Q: And the “Cross-strain reactivity of invasion inhibition” value (P. falciparum 3D7 or HB3; listed as PfRON2 peptide)?
A: strong inhibitory potency is not affected by AMA1 polymorphisms

Q: And the “Inhibition of erythrocyte invasion” value (P. falciparum 3D7 or HB3)?
A: very efficient at inhibiting invasion

Q: What about the “Inhibition of erythrocyte invasion” value (P. falciparum 3D7 or HB3; listed as PfRON2 peptide) of the same molecule?
A: inhibits erythrocyte invasion

Q: And the “Affinity for PfAMA1 relative to R1 peptide” value ([1]; all the PfAMA1 proteins tested, SPR, compared with R1)?
A: higher affinity than for R1 peptide

Q: What about the “Affinity to PfAMA1” value ([1]; in words) of the same molecule?
A: very high affinity to PfAMA1

Q: What about the “Inhibition of red blood cell invasion relative to R1 peptide” value (P. falciparum 3D7) of the same molecule?
A: higher capacity to inhibit red cell invasion; also recorded: higher inhibitory efficiency

Q: What about the Kd (PfAMA1 from strain CAMP) of the same molecule?
A: 14.6 ± 3.8 nM

Q: Which “Difference in affinity of PfAMA1 3D7 and CAMP homologs” value ([1]; 3D7 vs CAMP, SPR) does the source give for `CC[C@H](C)[C@H](NC(=O)[C@H](CC(=O)O)NC(=O)[C@@H](N)CCCCN)C(=O)NCC(=O)N[C@@H](C)C(=O)NCC(=O)N1CCC[C@H]1C(=O)N[C@H](C(=O)N[C@@H](C)C(=O)N[C@@H](CO)C(=O)N[C@H]1CSSC[C@@H](C(=O)N[C@@H](CC(C)C)C(=O)N[C@@H](CC(N)=O)C(=O)N[C@@H](CO)C(=O)N[C@H](C(=O)N[C@H](C(=O)N[C@@H](CC(N)=O)C(=O)O)C(C)C)C(C)C)NC(=O)[C@H]([C@@H](C)CC)NC(=O)[C@H](CCC(N)=O)NC(=O)[C@H](CCC(N)=O)NC(=O)[C@@H]2CCCN2C(=O)[C@@H]2CCCN2C(=O)[C@H](CO)NC(=O)[C@H](CCSC)NC(=O)[C@H](CCCNC(=N)N)NC(=O)[C@H]([C@@H](C)O)NC(=O)[C@H]([C@@H](C)O)NC(=O)[C@H](Cc2ccccc2)NC1=O)C(C)C` [PfRON2sp2] (H-KDIGAGPVASCFTTRMSPPQQICLNSVVN-OH; disulfide 11-23; N-terminus and C-terminus assumed) here?
A: no significant difference in the affinity

Q: What about the Kd (PfAMA1 from strain CAMP) of the same molecule?
A: 165 ± 42 nM

Q: For “PfRON2sp2 (PfRON2 residues 2027-2055) (peptide)”, which Kd [2] is on record?
A: 520 nM

Q: What about the Kd [3] of the same molecule?
A: 165 nM

Q: And the Kd [4]?
A: 80 nM

Q: And the Kd [5]?
A: 680 nM

Q: “PfRON2sp1 (PfRON2 residues 2021-2059) (peptide)” was tested. Which Kd [2] did it give?
A: 20.3 nM

Q: What about the Kd [3] of the same molecule?
A: 14.6 nM

Q: And the Kd [4]?
A: 9.2 nM

Q: What about the Kd [5] of the same molecule?
A: 18.3 nM

Q: For `CC[C@H](C)[C@H](NC(=O)[C@H](Cc1cnc[nH]1)NC(=O)[C@H](CCSC)NC(=O)[C@H](CCCNC(=N)N)NC(=O)[C@H](CO)NC(=O)CNC(=O)[C@H](Cc1ccccc1)NC(=O)[C@H](CCCCN)NC(=O)[C@H](CO)NC(=O)[C@H](Cc1ccccc1)NC(=O)[C@H](CC(C)C)NC(=O)[C@@H]1CCCN1C(=O)[C@H](CC(C)C)NC(=O)[C@H](Cc1ccccc1)NC(=O)[C@H](CCC(=O)O)NC(=O)[C@H](C)NC(=O)[C@H](Cc1ccccc1)NC(=O)[C@@H](N)C(C)C)C(=O)N[C@@H](CC(C)C)C(=O)N[C@@H](CCCCN)C(=O)O` [R1] (H-VFAEFLPLFSKFGSRMHILK-OH), which Kd (PfAMA1 3D7) is on record?
A: 145 nM

Q: Does VFAEFLPLFSKFGSRMHILK (source: synthetic peptide (PolyPeptide)) [invasion-inhibitory peptide R1] bind (crystal structure)?
A: binds
